This data set in a line: Pharmacokinetic study in vivo, plasma theophylline by HPLC. The following applies: male, rabbit, rabbits, intravenous injection, n = 5. The method, then:
The male rabbits were used as an animal model in this invention. Each rabbit was intravenous injection of theophylline solution, orally administered an uncoated theophylline core tablet (TH-Lac) and a coated micropore-controlled release tablet (TH-Lac-A50), respectively. Blood samples were collected at specific time points, and the plasma concentrations of theophylline were analyzed by high-performance liquid chromatography equipped with a reverse-phase column (Hypersil BDS C18, 250×4.6 mm, 5 μm) and a UV spectrophotometer at a wavelength of 272 nm (Shimadzu SPD-6AV). The mobile phase constituted by acetonitrile and 0.2 M acetate buffer solution (pH 4.5) in the ratio of 6.5:93.5% v/v was applied at a flow rate of 1.0 mL/min.

The record followed here is patent publication US20100112055A1, “MICROPOROUS FILM AND PREPARATION AND USE THEREOF” (NATIONAL TAIWAN UNIVERSITY, priority 2008, published 2010).

For orientation: AUC(0-inf) means the area under the concentration-time curve extrapolated to infinity. A high value points to more exposure. Usually Cmax stands for the peak of the concentration-time curve. The term MRT denotes the average time that molecules of a dose stay in the body. One may read the Tmax as the time at which the peak concentration occurs.

Molecules are shown by their SMILES.

As for `Cn1c(=O)c2[nH]cnc2n(C)c1=O` [IV-TH, theophylline], the total exposure AUC(0-inf) came to 117 ± 25.9 µg·h/mL, the peak level (Cmax) was 21200 ± 1990 ng/mL, the MRT amounted to 7.7 ± 1.16 h and the Tmax worked out at 0.25 h.
